In patent publication US7776913B2, “Carnitines for treating or preventing disorders caused by andropause” (Sigma-Tau Industrie Farmaceutiche Riunite S.p.A., priority 2002, dated 2010):

What was measured:
[1] = tested on: Patients aged over 60 years with lowered blood concentrations of free and total testosterone; experiment: Blood levels of total testosterone; format: in vivo, human; conditions: for Total testosterone: blood, mean ± SD
Source text: (§1) Reported here below is a clinical trial conducted in order to evaluate the activity of the combination according to the association in the treatment of the symptoms of male ageing.
(§2) Patients aged over 60 years with lowered blood concentrations of free and total testosterone (The Aging Male 4: 151-162, 2001) and complaining of symptoms figuring in the working definition of andropause proposed by the International Society for the Study of the Aging Male (I.S.S.A.M.) (The Aging Male 4: 151-162, 2001): reduced libido or sex drive and erectile function, depressed mood, difficulty concentrating, irritability and fatigue.
(§3) The above-mentioned compounds were presented to the patients in anonymous containers and administered for 6 months.
(§4) Medical history-taking and physical examinations were done for all patients. The following data were also collected prior to the start of treatment, after 1, 3 and 6 months of treatment: • 1. Total blood prostate-specific antigen (PSA) (ng/ml) as measured with the automatic test and monoclonal antibodies [Rigatti P., Scattoni V.: PSA: Antigene prostatico specifico. Edizioni Medico Scientifiche (EDIMES) Pavia, 1997]. • 2. Prostate volume (cm^3) as measured by suprapubic ultrasonography and calculated by means of the three diameters rule [Rigatti P. Scattoni V.: PSA: Antigene prostatico specifico. Edizioni Medico Scientifiche (EDIMES) Pavia, 1997]. • 3. Peak systolic volume (PSV) (cm/sec), end-diastolic velocity (EDV) (cm/sec), and Resistance Index (RI) (%) of the penile arteries (right and left cavernous e dorsal) as measured by means of penile basal and dynamic colour Doppler ultrasonography. RI was calculated as follows: (PSV-EDV/EDV)×100 (Urology 1997: 49: 822-830). • 4. Duration of full erections (in minutes) in the course of a recording period of three nights performed with Rigiscan. […] Free and total blood testosterone, LH and prolactin levels (The Aging Male 4: 151-162, 2001). • 6. Sexual function was checked by means of semistructured interviews and administration of the International Index of Erectile Function (IIEF-15) (Urology 1997: 49: 822-830). A score was calculated for each patient. • 7. Depression was quantified by means of the Hamilton Depression Scale questionnaire (DMS III) (Cancer 94: 2481-2489, 2002). A score was calculated for each patient. • 8. The subjective sensation of fatigue was calculated using the fatigue scale (Lison L.: Statistica applicata alla biologia sperimentale. Milano: Casa Editrice Ambrosiana, 1972). A score was calculated for each patient. • 9. Side effects. […]

[2] = tested on: Patients aged over 60 years with lowered blood concentrations of free and total testosterone; experiment: Total blood prostate-specific antigen (PSA) in the clinical trial; conditions: for PSA: mean ± SD, 15 patients
Source text: as §1, §2, §3, §4

[3] = tested on: Patients aged over 60 years with lowered blood concentrations of free and total testosterone; experiment: Blood levels of free testosterone; format: in vivo, human; conditions: mean ± SD
Source text: as §1, §2, §3
(§5) Medical history-taking and physical examinations were done for all patients. The following data were also collected prior to the start of treatment, after 1, 3 and 6 months of treatment: • 1. Total blood prostate-specific antigen (PSA) (ng/ml) as measured with the automatic test and monoclonal antibodies [Rigatti P., Scattoni V.: PSA: Antigene prostatico specifico. Edizioni Medico Scientifiche (EDIMES) Pavia, 1997]. • 2. Prostate volume (cm^3) as measured by suprapubic ultrasonography and calculated by means of the three diameters rule [Rigatti P. Scattoni V.: PSA: Antigene prostatico specifico. […] Peak systolic volume (PSV) (cm/sec), end-diastolic velocity (EDV) (cm/sec), and Resistance Index (RI) (%) of the penile arteries (right and left cavernous e dorsal) as measured by means of penile basal and dynamic colour Doppler ultrasonography. RI was calculated as follows: (PSV-EDV/EDV)×100 (Urology 1997: 49: 822-830). • 4. […] A score was calculated for each patient. • 7. Depression was quantified by means of the Hamilton Depression Scale questionnaire (DMS III) (Cancer 94: 2481-2489, 2002). A score was calculated for each patient. • 8. The subjective sensation of fatigue was calculated using the fatigue scale (Lison L.: Statistica applicata alla biologia sperimentale. Milano: Casa Editrice Ambrosiana, 1972). A score was calculated for each patient. • 9. […]

[4] = tested on: Patients aged over 60 years with lowered blood concentrations of free and total testosterone; experiment: Fatigue scale; format: in vivo, human; conditions: for Fatigue scale score: mean ± SD
Source text: as §1, §2, §3
(§6) Medical history-taking and physical examinations were done for all patients. The following data were also collected prior to the start of treatment, after 1, 3 and 6 months of treatment: • 1. Total blood prostate-specific antigen (PSA) (ng/ml) as measured with the automatic test and monoclonal antibodies [Rigatti P., Scattoni V.: PSA: Antigene prostatico specifico. Edizioni Medico Scientifiche (EDIMES) Pavia, 1997]. • 2. Prostate volume (cm^3) as measured by suprapubic ultrasonography and calculated by means of the three diameters rule [Rigatti P. Scattoni V.: PSA: Antigene prostatico specifico. Edizioni Medico Scientifiche (EDIMES) Pavia, 1997]. • 3. Peak systolic volume (PSV) (cm/sec), end-diastolic velocity (EDV) (cm/sec), and Resistance Index (RI) (%) of the penile arteries (right and left cavernous e dorsal) as measured by means of penile basal and dynamic colour Doppler ultrasonography. RI was calculated as follows: (PSV-EDV/EDV)×100 (Urology 1997: 49: 822-830). • 4. Duration of full erections (in minutes) in the course of a recording period of three nights performed with Rigiscan. […] Free and total blood testosterone, LH and prolactin levels (The Aging Male 4: 151-162, 2001). • 6. Sexual function was checked by means of semistructured interviews and administration of the International Index of Erectile Function (IIEF-15) (Urology 1997: 49: 822-830). A score was calculated for each patient. • 7. Depression was quantified by means of the Hamilton Depression Scale questionnaire (DMS III) (Cancer 94: 2481-2489, 2002). A score was calculated for each patient. • 8. The subjective sensation of fatigue was calculated using the fatigue scale (Lison L.: Statistica applicata alla biologia sperimentale. Milano: Casa Editrice Ambrosiana, 1972). A score was calculated for each patient. • 9. Side effects.
(§7) Blood concentrations of PSA, free and total testosterone, prolactin LH, prostate volume, PSV, EDV, RI, full erection duration, IIEF-15, DMS III, and fatigue scale scores were compared between and within groups by means of factorial analysis of variance for randomised blocks (1 patient=1 block). Comparison of the mean values was done on the raw data with the exclusion of RI which used data subjected to angular transformation (sin^−1 √P/100) for the comparisons. Side effects were compared using the chi-square etst (Lison L.: Statistica applicata alla biologia sperimentale. Milano: Casa Editrice Ambrosiana, 1972).

[5] = tested on: Patients aged over 60 years with lowered blood concentrations of free and total testosterone; experiment: Hamilton Depression Scale questionnaire (DMS III); format: in vivo, human; conditions: for Hamilton Depression Scale questionnaire (DMS III) score: mean ± SD
Source text: as §1, §2, §3, §6, §7

[6] = tested on: Patients aged over 60 years with lowered blood concentrations of free and total testosterone; experiment: Duration of full nocturnal erections, three nights by Rigiscan; format: in vivo, human; conditions: for Duration of full erections: three nights by Rigiscan, mean ± SD
Source text: as §1, §2, §3, §4

[7] = tested on: Patients aged over 60 years with lowered blood concentrations of free and total testosterone; experiment: Blood prolactin levels; format: in vivo, human; parameters: unit not given here; conditions: mean ± SD
Source text: as §1, §2, §3, §5

[8] = tested on: Patients aged over 60 years with lowered blood concentrations of free and total testosterone; experiment: Penile dynamic colour Doppler ultrasonography (PSV, EDV, RI of cavernous arteries); format: in vivo, human; conditions: mean ± SD
Source text: as §1, §2, §3, §6, §7

Substance: testosterone undecaonate
- Change in total serum testosterone (in words) ([1]; at either 3 or 6 months): no significant increases
- Total testosterone ([1]; 3 months of therapy): 15.5 ± 3.9 nmol/L
- Total testosterone ([1]; 6 months of therapy): 15.8 ± 2.6 nmol/L
- Total testosterone ([1]; before therapy): 14.5 ± 2.1 nmol/L
- PSA ([2]; 3 months of therapy): 2.01 ± 0.79 ng/mL
- PSA ([2]; 6 months of therapy): 2.02 ± 0.85 ng/mL
- PSA ([2]; before therapy): 2.02 ± 0.74 ng/mL
- Change in blood PSA levels (in words) ([2]; during and after therapy vs before): did not significantly increase
- Free blood testosterone ([3]; 3 months of therapy): 19.5 ± 4.2 pg/mL
- Free blood testosterone ([3]; 6 months of therapy): 19.7 ± 4.0 pg/mL
- Free blood testosterone ([3]; before therapy): 4.4 ± 0.8 pg/mL
- Fatigue scale score ([4]; 3 months of therapy): 1.1 ± 1.0
- Fatigue scale score ([4]; 6 months of therapy): 0.6 ± 0.4
- Change in fatigue scale score (in words) ([4]; at 3 months, F=33.6, P<0.01): statistically significant increase
- Change in fatigue scale score (in words) ([4]; at 6 months, F=5.9, P=n.s.): no significant increase
- Fatigue scale score ([4]; before therapy): 2.8 ± 1.3
- Activity in increasing the sensation of general well-being, comparison ([4]; conclusion from Table 20): significantly more active than placebo
- Hamilton Depression Scale questionnaire (DMS III) score ([5]; 3 months of therapy): 5.8 ± 0.7
- Hamilton Depression Scale questionnaire (DMS III) score ([5]; 6 months of therapy): 5.1 ± 1.3
- Change in DMS III scores (in words) ([5]; at 3 months, F=4.07, P<0.05): significant decrease
- Significant decrease in DMS III scores (in words) ([5]; at 6 months, F=2.5, P=n.s.): but not at 6 months
- DMS III score compared between groups ([5]; at 6 months, comparison with placebo (and testosterone)): No significant difference
- Hamilton Depression Scale questionnaire (DMS III) score ([5]; before therapy): 6.6 ± 1.0
- Duration of full erections ([6]; 3 months of therapy): 112.7 ± 21.1 min
- Duration of full erections ([6]; 6 months of therapy): 119.6 ± 26.0 min
- Change in duration of full nocturnal erections (in words) ([6]; at 6 months): significant increase
- Duration of full erections ([6]; before therapy): 108.3 ± 18.7 min
- Prolactin ([7]; 3 months of therapy): 7.4 ± 1.7
- Prolactin ([7]; 6 months of therapy): 7.3 ± 1.8
- Prolactin ([7]; before therapy): 7.7 ± 1.6
- Left cavernous PSV ([8]; 3 months of therapy): 32.6 ± 4.2 cm/sec
- Left cavernous artery EDV ([8]; 3 months of therapy): 7.5 ± 3.3 cm/s
- Right cavernous artery EDV ([8]; 3 months of therapy): 7.9 ± 3.6 cm/s
- Right cavernous artery PSV ([8]; 3 months of therapy): 32.8 ± 4.2 cm/sec
- Left cavernous PSV ([8]; 6 months of therapy): 33.5 ± 3.5 cm/sec
- Left cavernous artery EDV ([8]; 6 months of therapy): 7.4 ± 3.3 cm/s
